Where two headings read alike, the source gives them in different places.
Columns and labels:
A2780 [1] = test: SRB assay, inhibition of tumor cell growth at 1 µM (Example 61); format: cell-based, Human; conditions: 48 hours; for inhibition at 1 µM: Homo sapiens
Experimental: (§1) 3,000-15,000 cells/well were exposed to the test compounds at a concentration of 1 µM for 48 hours, and cytotoxicty was measured using the SRB assay according to Shekan et al (J Natl Cancer Inst (1990) 82, 1107-112). Briefly, cells were plated in 96 well dishes 24 hours prior to compound addition. The assay was terminated with the addition of cold TCA to a final concentration of 10% and the plates were incubated for one hour at 4°C. The plates were then washed 5 times with water and 100µl of a Sulforhodamine B solution (4%) was added to each well. The plate was then incubated for 10 minutes at room temperature before removal of unbound dye by washing with 1% acetic acid. The bound dye was solubilized with 10 mM Trizma base and the absorbance read at OD570. Inhibitory activity of the compounds was calculated as % inhibition compared to cells treated with the solvent (DMSO). Table 2 represents the growth inhibitory activity of certain compunds of the invention across a number of tumor cell lines.

HCT-116 [2] = test: as above; format: cell-based; conditions: 48 hours; for inhibition at 1 µM: Homo sapiens
Experimental: as §1

PC-3 [3] = test: as above; format: cell-based; conditions: 48 hours; for inhibition at 1 µM: Homo sapiens
Experimental: as §1

SW-620 [4] = test: as above; format: cell-based; conditions: 48 hours; for inhibition at 1 µM: Homo sapiens
Experimental: as §1

A2780 [5] = test: IC50 determination by SRB assay (Example 62); format: cell-based; conditions: Homo sapiens
Experimental: as §1
(§2) The assay was performed similar to example 61. However, test compounds were added at various concentrations, such as from 0.001 to about 0.1 µM, from 0.1 to about 10 µM, or from 1 to about 10 µM, as the need may be, in order to estimate the IC50 values. IC50 values were determined by plotting the percentage inhibitory activity for each concentration, fitting a curve using appropriate software and estimating the concentration at which 50% inhibition of growth would occur.

HCT-116 [6] = test: IC50 determination by SRB assay (Example 62); format: cell-based; conditions: HCY-116
Experimental: as §1, §2

MCF7 [7] = test: IC50 determination by SRB assay (Example 62); format: cell-based
Experimental: as §1, §2

PC-3 [8] = test: IC50 determination by SRB assay (Example 62); format: cell-based; conditions: Homo sapiens
Experimental: as §1, §2

A-549 = test: SRB assay, inhibition of tumor cell growth at 1 µM (Example 61); format: cell-based; conditions: for inhibition at 1 µM: Homo sapiens, A549, 48 hours; for % Inhibition (1 µM): 48 hours
Experimental: as §1

MCF7 [9] = test: as above; format: cell-based; conditions: 48 hours; for inhibition at 1 µM: Homo sapiens
Experimental: as §1

SW-620 [10] = test: IC50 determination by SRB assay (Example 62); format: cell-based
Experimental: as §1, §2

| Molecule | inhibition at 1 µM (A2780 [1]) | inhibition at 1 µM (HCT-116 [2]) | inhibition at 1 µM (PC-3 [3]) | inhibition at 1 µM (SW-620 [4]) | IC50 (A2780 [5]) | IC50 (HCT-116 [6]; Homo sapiens, HCT-116) | IC50 (MCF7 [7]; Homo sapiens) | IC50 (PC-3 [8]) | inhibition at 1 µM (A-549) | inhibition at 1 µM (MCF7 [9]) | IC50 (SW-620 [10]; Homo sapiens) | % Inhibition (1 µM) (A2780 [1]) | % Inhibition (1 µM) (HCT-116 [2]) | % Inhibition (1 µM) (MCF7 [9]) | % Inhibition (1 µM) (PC-3 [3]) | % Inhibition (1 µM) (SW-620 [4]) | IC50 (HCT-116 [6]) | IC50 (MCF7 [7]) | IC50 (SW-620 [10]) | % Inhibition (1 µM) (A-549) |
| --- | --- | --- | --- | --- | --- | --- | --- | --- | --- | --- | --- | --- | --- | --- | --- | --- | --- | --- | --- | --- |
| O=c1c(NCCCCCCOc2ccc(Cl)cc2)c(Nc2ccncc2)c1=O [SQ-7B] | > 80% | > 80% | > 50% | > 50% | < 100 nM | < 100 nM | < 100 nM | – | – | – | – | – | – | – | – | – | – | – | – | – |
| O=c1c(NCCc2ccc(Oc3ccc(Cl)cc3)cc2)c(Nc2ccncc2)c1=O [SQ-20, 3-{2-[4-(4-Chlorophenoxy)-phenyl]-ethylamino}-4-(pyridin-4-yl-amino)-cyclobut-3-ene-1,2-dione] | – | – | – | – | < 20 nM | < 100 nM | – | < 500 nM | – | – | – | – | – | – | – | – | – | – | – | – |
| O=c1c(NCc2ccc(Oc3ccc(Cl)cc3)cc2)c(Nc2cccnc2)c1=O [SQ-30, 3-[4-(4-Chlorophenoxy)-benzylamino]-4-(pyridin-3-yl-amino)-cyclobut-3-ene-1,2-dione] | > 80% | > 80% | > 20% | > 20% | – | < 2000 nM | < 500 nM | – | > 50% | > 80% | > 10000 nM | – | – | – | – | – | – | – | – | – |
| O=c1c(NCCCCCCOc2ccc(C(F)(F)F)cc2)c(Nc2ccncc2)c1=O [SQ-18, 3-[6-(4-Trifluoromethylphenoxy)-hexylamino]-4-(pyridin-4-yl-amino)-cyclobut-3-ene-1,2-dione] | > 80% | > 80% | > 50% | > 20% | – | – | < 10000 nM | – | > 20% | – | < 2000 nM | – | – | – | – | – | – | – | – | – |
| O=c1c(NCc2cccc(Oc3ccc(Cl)cc3)c2)c(Nc2cccnc2)c1=O [SQ-33, 3-[3-(4-Chlorophenoxy)-benzylamino]-4-(pyridin-3-yl-amino)-cyclobut-3-ene-1,2-dione] | > 20% | > 50% | 0% | > 5% | – | – | – | – | 0% | 0% | – | – | – | – | – | – | – | – | – | – |
| Cc1ccc(OCCCCCCNc2c(Nc3ccncc3)c(=O)c2=O)cc1 [SQ-13] | > 80% | > 80% | > 50% | > 20% | – | < 100 nM | – | – | > 20% | > 5% | < 2000 nM | – | – | – | – | – | – | – | – | – |
| O=c1c(NCCc2ccc(Oc3ccc(Cl)cc3)cc2)c(Nc2cccnc2)c1=O [SQ-6, 3-{2-[4-(4-Chlorophenoxy)-phenyl]-ethylamino}-4-(pyridin-3-yl-amino)-cyclobut-3-ene-1,2-dione] | – | – | – | – | < 20 nM | < 100 nM | – | < 500 nM | – | – | – | – | – | – | – | – | – | – | – | – |
| 3-[2-(4-Phenoxyphenyl)-ethylamino]-4-(pyridin-3-yl-amino)-cyclobut-3-ene-1,2-dione [SQ-5] | – | – | – | – | – | – | – | – | – | – | – | >80% | >80% | >50% | >50% | 0% | < 100 nM | < 10000 nM | < 2000 nM | – |
| O=c1c(NCCCCOc2ccc(Cl)cc2)c(Nc2ccncc2)c1=O [SQ-10] | > 50% | > 50% | – | > 20% | – | < 2000 nM | < 2000 nM | – | 0% | > 50% | < 10000 nM | – | – | – | – | – | – | – | – | – |
| N#Cc1ccc(OCCCCCCNc2c(Nc3ccncc3)c(=O)c2=O)cc1 [SQ-19, 4-{6-[3,4-Dioxo-2-(pyridin-4-ylamino)-cyclobut-1-enylamino]-hexyloxy}-benzonitrile] | > 50% | > 5% | > 5% | > 5% | – | – | – | – | > 0% | – | – | – | – | – | – | – | – | – | – | – |
| O=c1c(NCCCCCCCCOc2ccc(Cl)cc2)c(Nc2ccncc2)c1=O [SQ-9] | > 80% | > 80% | > 50% | > 50% | – | – | < 500 nM | – | > 5% | > 80% | < 2000 nM | – | – | – | – | – | – | – | – | – |
| O=c1c(NCCCCCCOc2ccc(Cl)cc2)c(Nc2cccnc2)c1=O [SQ-1B] | > 80% | > 80% | > 50% | > 20% | < 100 nM | < 20 nM | < 10 nM | – | > 20% | > 80% | < 2000 nM | – | – | – | – | – | – | – | – | – |
| O=c1c(NCCCCCCNc2ccc(Cl)cc2)c(Nc2cccnc2)c1=O [SQ-26, 3-[6-(4-Chlorophenylamino)-hexylamino]-4-(pyridin-3-yl-amino)-cyclobut-3-ene-1,2-dione] | > 80% | > 80% | > 50% | > 20% | – | < 100 nM | – | – | > 50% | > 5% | < 2000 nM | – | – | – | – | – | – | – | – | – |
| O=c1c(NCCCCCOc2ccc(Cl)cc2)c(Nc2ccncc2)c1=O [SQ-8] | > 80% | > 80% | > 50% | > 20% | – | < 100 nM | < 100 nM | – | > 5% | > 80% | < 2000 nM | – | – | – | – | – | – | – | – | – |
| O=c1c(NCCCCCCNc2ccc(Cl)cc2)c(Nc2ccncc2)c1=O [SQ-25, 3-[6-(4-Chlorophenylamino)-hexylamino]-4-(pyridin-4-yl-amino)-cyclobut-3-ene-1,2-dione] | > 80% | > 80% | > 50% | > 20% | – | < 500 nM | – | – | > 20% | > 5% | < 2000 nM | – | – | – | – | – | – | – | – | – |
| 3-[6-(3,4-Dichlorophenoxy)-hexylamino)]-4-(pyridin-4yl-amino)-3-cyclobutene-1,2-dione [SQ-15] | – | – | – | – | – | – | – | – | – | – | – | >80% | >80% | >20% | >50% | >20% | < 100 nM | – | < 500 nM | >20% |
| O=c1c(NCc2ccc(COc3ccc(Cl)cc3)cc2)c(Nc2cccnc2)c1=O [SQ-32, 3-[4-(4-Chlorophenoxymethyl)-benzylamino]-4-(pyridin-3-yl-amino)-cyclobut-3-ene-1,2-dione] | > 80% | > 80% | > 50% | > 5% | < 100 nM | < 100 nM | > 10000 nM | – | > 20% | > 20% | > 10000 nM | – | – | – | – | – | – | – | – | – |
| O=c1c(NCCCCCOc2ccc(Cl)cc2)c(Nc2cccnc2)c1=O [SQ-2] | > 80% | > 80% | > 50% | > 50% | < 20 nM | < 20 nM | < 20 nM | – | > 50% | > 80% | < 10000 nM | – | – | – | – | – | – | – | – | – |
| O=c1c(NCCCCCCCOc2ccc(Cl)cc2)c(Nc2ccncc2)c1=O [SQ-11A] | > 80% | > 80% | > 20% | > 50% | – | < 100 nM | < 100 nM | – | > 5% | > 80% | < 2000 nM | – | – | – | – | – | – | – | – | – |
| O=c1c(NCCc2ccc(Oc3ccccc3)cc2)c(Nc2ccncc2)c1=O [SQ-17, 3-[2-(4-Phenoxyphenyl)-ethylamino]-4-(pyridin-4-yl-amino)-cyclobut-3-ene-1,2-dione] | > 80% | > 80% | > 50% | > 20% | < 100 nM | < 20 nM | < 10000 nM | – | > 50% | – | < 500 nM | – | – | – | – | – | – | – | – | – |
| O=c1c(NCCCCCCCOc2ccccc2)c(Nc2ccncc2)c1=O [SQ-11B, 3-(7-Phenoxyheptylamino)-4-(pyridin-4yl-amino)-3-cyclobutene-1,2-dione] | > 80% | > 80% | > 50% | > 50% | – | < 20 nM | < 20 nM | – | > 50% | > 80% | < 500 nM | – | – | – | – | – | – | – | – | – |
| 3-[4-Phenoxybenzylamino]-4-(pyridin-4-yl-amino)-cyclobut-3-ene-1,2-dione [SQ-34] | – | – | – | – | – | – | – | – | – | – | – | >20% | >20% | – | >0% | 0% | – | – | – | 0% |
| COc1ccc(OCCCCCCNc2c(Nc3ccncc3)c(=O)c2=O)cc1 [SQ-14] | > 80% | > 80% | > 50% | > 20% | – | < 100 nM | – | – | > 20% | > 5% | < 2000 nM | – | – | – | – | – | – | – | – | – |

Reference: patent EP1674457B1, “Derivatives of squaric acid with anti-proliferative activity” (GPC Biotech AG, priority 2004, dated 2006)
